{"source": "patent US8642603B2", "about": "“Substituted dihydro and tetrahydro oxazolopyrimidinones, preparation and use thereof” (Sanofi, priority 2007, dated 2014)", "origin": "cited, not measured here", "key": {"healthy human subjects": {"system": "healthy human subjects", "conditions": "pretreatment"}, "[1]": {"system": "pentylenetetrazole- and picrotoxin-induced seizures", "conditions": "in vivo"}, "[2]": {"system": "positive and negative symptoms of schizophrenia", "conditions": "compared to placebo"}}, "data": [{"smiles": "N[C@H](C(=O)O)c1ccc(C(=O)O)c(O)c1", "note": "[(S)-4-carboxy-3-hydroxyphenylglycine]", "values": [{"measurement": "protection against audiogenic seizures", "setting": "DBA/2 mice", "result": "protects against audiogenic seizures"}]}, {"smiles": "N[C@@]1(C(=O)O)CC[C@H]2[C@H](C(=O)O)[C@H]21", "note": "[LY354740]", "values": [{"measurement": "effect on disruption of working memory by ketamine", "setting": "healthy human subjects", "result": "attenuation of the disruptive effects"}, {"measurement": "effect on pentylenetetrazole- and picrotoxin-induced seizures", "setting": "[1]", "result": "attenuates pentylenetetrazole- and picrotoxin-induced seizures"}]}, {"smiles": "N[C@@]1(C(=O)O)CO[C@H]2[C@H](C(=O)O)[C@H]21", "note": "[LY379268]", "values": [{"measurement": "effect on REM sleep and fast EEG", "setting": "rat", "result": "suppresses rapid eye movement (REM) sleep and fast EEG"}]}, {"smiles": "CSCC[C@H](N)C(=O)N[C@@]1(C(=O)O)CS(=O)(=O)[C@H]2[C@H](C(=O)O)[C@H]21", "note": "[LY2140023]", "values": [{"measurement": "positive and negative symptoms of schizophrenia", "setting": "[2]", "result": "statistically significant improvements"}]}, {"smiles": "N[C@]1(C(=O)O)[C@H]2[C@@H](C[C@H]1OCc1ccc(Cl)c(Cl)c1)[C@]2(F)C(=O)O", "note": "[MGS0039]", "values": [{"measurement": "antidepressant-like effects", "setting": "some animal models", "result": "dose-dependent antidepressant-like effects"}]}, {"smiles": "Cc1c(OCc2cccc(-c3ccc(C(=O)O)cc3)c2)cc2c(c1C)C(=O)C(C1CCCC1)C2", "note": "(stereo not shown) [biphenyl-indanone A]", "values": [{"measurement": "antipsychotic- and anxiolytic-like effects", "setting": "mice", "result": "antipsychotic- and anxiolytic-like effects"}]}]}
